Source: paper PMC6193987, “Metagenomics reveals functional synergy and novel polysaccharide utilization loci in the Castor canadensis fecal microbiome” (The ISME Journal, 2018)

Columns and labels:
[1] = test system: 12_J03-18; assay: fluorogenic glycosidase kinetics; assay type: biochemical, uncultured bacterium (Castor canadensis fecal metagenome)
Excerpt: fluorogenic glycosidase kinetics on 12_J03-18

[2] = test system: 12_H03-13; assay: fluorogenic glycosidase kinetics; assay type: biochemical, uncultured bacterium (Castor canadensis fecal metagenome); details: GH43 domain site
Excerpt: fluorogenic glycosidase kinetics on 12_H03-13

Cc1cc(=O)oc2cc(O[C@@H]3OC[C@@H](O)[C@H](O)[C@H]3O)c(Cl)cc12 [6-chloro-4-methylumbelliferyl β-D-xyloside] gave a Km [1] of 480 ± 60 µM, a Km [2] of 190 ± 30 µM and a Km ([2]; GH8 catalytic acid residue mutated) of 140 ± 10 µM.
